From US7071311B2, “Antibodies having specificity for 2′-C-allyl nucleic acids” (Sirna Therapeutics, Inc., priority 2002, dated 2006)

What was measured:
CA1USR mAb = assay: Competition enzyme immunoassay (EIA): nucleotide competitors against CA1USR mAb binding to 2′-deoxy-2′-C-allyl Uridine-KLH; design: species or system murine; conditions: competitor nucleotides 500 to 7.8 μg/ml preincubated with CA1USR mAb; DNA-Bind plates coated with 2′-deoxy-2′-C-allyl Uridine-KLH; FIG. 2
Method: N-oxy-succinimide ester derivatized 96 well plates (DNA-Bind; Costar/Corning, Corning, N.Y.) were coated overnight at room temperature with 50 ng/well of 2′-deoxy-2′-C-allyl Uridine-KLH. After two washes with phosphate buffered saline, 0.1% Tween (PBS-T), plates were blocked for 1 h with PBS plus 1% casein (Pierce, Rockford, Ill.). Hybridoma supernatant was incubated on the plates for 1 h, after which wells were washed 4 times with PBS-T. Positive wells were detected with peroxidase-conjugated F(ab)′2 Goat anti-mouse IgG (Pel-Freez, Rogers, Ark.), and developed with TMB substrate (Kirkegaard and Perry, 2 component; Gaithersburg, Md.). Plates were read on a Molecular Dynamics plate reader (Molecular Dynamics, Sunnyvale, Calif.) at 450 nm with 595 nm correction.
DNA-Bind plates were coated overnight with 50 ng/well of 2′-deoxy-2′-C-allyl Uridine-conjugated KLH. 60 μl volumes of the purified CA1USR mAb, at a concentration of 500 ng/ml, were incubated at 37° C. for 30 min with 60 μl volumes of a series of concentrations of competitor nucleotides, from a concentration of 500 to 7.8 μg/ml. The antibody-competitor mixtures were then plated on the 2′-C-allyl-KLH coated DNA-Bind plates, and the EIA proceeded as described for the fusion screening assay.

[1] = Immunohistochemistry with CA1USR mAb on kidneys of ribozyme-treated mice (in vivo localization); conditions: for CA1USR mAb immunoreactivity (staining) in kidney: 3 subcutaneous injections of 100 mg/kg, kidney sections stained with CA1USR mAb 5 μg/ml
Method: Tissues were harvested from mice injected subcutaneously with either saline or a ribozyme from 60 to 120 min after injection. Animals were perfused with normal saline, then with a solution of 3% paraformaldehyde, 0.5% gluteraldehyde prior to tissue harvest. The tissue was placed in a 30% sucrose solution at 4° C. overnight, then removed, and frozen in a Gentle Jane (Instrumedics; Hackensack, N.J.) Snap-Freezing System with Cryo-Gel Embedding Medium (Instrumedics). Five micron (μm) sections were cut and placed on slides; the slides were allowed to air dry. Prior to staining, slides were quenched in 3% hydrogen peroxide and 0.5% horse serum in PBS, then blocked with M.O.M. Mouse Ig Blocking Reagent (Vector Labs, Burlingame, Calif.) for 1 h, washed with PBS, and stained with the CA1USR MAb at 5 μg/ml in M.O.M. diluent for 30 min. After washing, slides were incubated with M.O.M. Biotinylated Anti-Mouse IgG Reagent for 10 min, washed, and incubated with Vectastain Elite ABC Reagent for 5 min, then developed in DAB chromogen (Vector Labs). Slides were rinsed, counterstained with hematoxylin (Richard-Allan Scientific, Kalamazoo, Mich.), dehydrated, and cover-slipped. Slides were viewed on a Nikon Microphot FXA microscope.

inhibition of binding of CA1USR mAb to 2′-deoxy-2′-C-allyl Uridine-KLH (CA1USR mAb) | Compound | Hematoxylin and eosin microscopy of granular structures in treated kidneys ([1]; 3 subcutaneous 100 mg/kg injections, kidney) | CA1USR mAb immunoreactivity (staining) in kidney [1]
able to inhibit | C=CC[C@@H]1[C@H](O)[C@@H](CO)O[C@H]1n1ccc(=O)[nH]c1=O [2′-deoxy-2′-C-allyl Uridine] | – | –
– | ANGIOZYME® ribozyme: synthetic 35-mer hammerhead ribozyme directed against VEGFR-1 mRNA with 2′-deoxy-2′-C-allyl Uridine at U4 (GAGUUGCUGAUGAGGCCGAAAGGCCGAAAGUCUG; 2'-deoxy-2'-C-allyl uridine at U4, chemistry not fully specified) | basophilic in character | intense 2′-deoxy-2′-C-allyl Uridine mAb immunoreactivity
– | unmodified HERZYME™ ribozyme: ribozyme targeted to Her2 mRNA, structure different from the hammerhead motif (GCAGUGGCCGAAAGGCGAGUGAGGUCUAGCUCA; called unmodified, meaning without 2'-C-allyl U14, full chemistry not given here) | – | no staining
